Source: patent US12410064B2, “Preparation of soluble compounds” (EXCITON PHARMA CORP., priority 2019, dated 2025)
Where “and” joins values, the source holds several entries; their conditions need not be identical. Identical values can stand only once.

Columns and labels:
[1] = system: Staphylococcus aureus biofilms; assay: S. aureus antibiofilm assay (log-reduction vs no treatment control); assay type: cell-based
Description: Briefly, S. aureus biofilms were grown on sterile gauze at 37° C. for 72 hours (gauze was re-inoculated with S. aureus at 24 hours and 48 hours). After incubation, the gauze was rinsed with sterile water and placed onto Mueller Hinton agar (MHA) plates. The compound was dissolved in aqueous (RO water) solution at a concentration of 0.4 mg Ag/cm^2 or 10 mg Ag per 5×5 cm testing and placed on top of the gauze. The plates were incubated for 6 hours at 37° C. The remaining solution containing metal complexes was removed from the biofilm and the biofilm/gauze was neutralized in 10 mL of sodium thioglycolate. The bacteria were agitated to remove them from the gauze and the resulting bacterial suspensions were diluted and spread onto MHA plates which were incubated for 18-24 hours at 37° C. and the resulting viable bacterial colonies were enumerated. The log-reduction of S. aureus was calculated relative to the reduction achieved in the “no treatment” negative control samples. Results represent the average of triplicate data. The assay was repeated upon the aged solid state at a shelf life of 5 months (FIGS. 4A-B).

[2] = Acid-base titration curve (equivalence points); assay type: physicochemical; conditions: FIG. 1, inflection points of the curve; listed as JN300118-1
Excerpt: In the various embodiments, sufficient concentrations of the acid or base to transform the first oxidized metal complex into the desired second oxidized metal complex may be determined using acid-base titration. As used herein, the term “acid-base titration” refers to a method of quantitative analysis for determining the concentration of an acid or base by exactly neutralizing it with a standard solution of base or acid having known concentration. A pH indicator may be used to monitor the progress of the acid-base reaction. An acid-base titration curve may be plotted on a graph to show the changes in the pH upon addition of acid or base. As shown for example in FIG. 1, the curve falls near equivalence points (inflection points of the curve). The quantity of acid or base required to reach each equivalence point (e.g., FIG. 1, pH 11.3, 5.7) may be identified from the graph.
At each equivalence point or corresponding pH, the first oxidized metal complex may be transformed into a different second oxidized metal complex. […]

[3] = Solid state stability under ambient conditions, analysed by UV-Vis spectroscopy; assay type: physicochemical; conditions: room temperature, ambient air and light, five months
Description: Stability evaluation of each compound in its solid state stored under ambient conditions was performed.

[4] = S. aureus biofilm on gauze, 0.4 mg Ag/cm^2 in RO water, 6 hours at 37° C.

In the case of `[Ag+].[Ag+].[Ag+].[Ag+].[Ag+].[O-][I+]([O-])([O-])([O-])([O-])[O-]` [JN111018-3, Pentasilver periodate, reference compound], the antimicrobial activity [1, 4] is reported as “antimicrobial activity, yield”.
With K4-1H1-4Ag(IO5OH)2O [JN301118-1] the “equivalence point of acid-base titration curve” value [2] was 11.3 pH and 5.7 pH.
In the case of K5-3H0-2Ag(IO5OH)2 [JN150618-3], the antimicrobial activity [1, 4] is reported as “bright red crystals, antimicrobial activity”.
With “Sodium diperiodatoargentate Na5Ag(IO5OH)216H2O [JN091118-2, reference compound]” the antimicrobial activity ([1]; S. aureus biofilm as Example 2, but semi-solid formulation (about 0.083 g) dissolved into RO water (1 mL), 0.4 mg Ag/cm^2) was “Atkinson, antimicrobial activity, yield”.
For “diperiodatoargentate potassium salt [JN300518-2a]”, the solid state stability [3] was “bright red crystals, solid state stability,”.
